Data from PubChem BioAssay AID330 (DTP/NCI, 2004).
Values joined by “and” are separate entries in the source; they are usually repeats but may differ in a detail not shown here. Equal entries are not always repeated. Toxic doses and inconclusive results are not listed. Rule for the calls: active = survival T/C of 150% or more; inactive = T/C below 125% in these data.

Test system: P388 leukemia ip, CD2F1 mice, survival T/C
Experiment: NCI In Vivo Anticancer Drug Screen. Data for tumor model P388 Leukemia (intraperitoneal) in CD2F1 (CDF1) mice
Conditions: endpoint: median survival time, higher = longer survival
In short: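 Mice carrying the transplanted tumor received test compound or vehicle. Survival was recorded in each group, and the value is the treated-group measurement divided by that of the vehicle-treated control group.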

[1] = dose: 30.0 mg/kg/injection, schedule: Q01DX005 (ip), vehicle: saline
[2] = dose: 60.0 mg/kg/injection, schedule: Q01DX005 (ip), vehicle: saline
[3] = dose: 120.0 mg/kg/injection, schedule: Q01DX005 (ip), vehicle: saline
[4] = dose: 50.0 mg/kg/injection, schedule: Q01DX005 (ip), vehicle: Klucel (hydroxypropylcellulose) (HPC)
[5] = dose: 100.0 mg/kg/injection, schedule: Q01DX005 (ip), vehicle: Klucel (hydroxypropylcellulose) (HPC)
[6] = dose: 200.0 mg/kg/injection, schedule: Q01DX005 (ip), vehicle: Klucel (hydroxypropylcellulose) (HPC)
[7] = dose: 50.0 mg/kg/injection, schedule: Q01DX009 (ip), vehicle: saline
[8] = dose: 100.0 mg/kg/injection, schedule: Q01DX009 (ip), vehicle: saline
[9] = dose: 200.0 mg/kg/injection, schedule: Q01DX009 (ip), vehicle: saline
[10] = dose: 50.0 mg/kg/injection, schedule: Q01DX009 (ip), vehicle: saline with Tween-80
[11] = dose: 100.0 mg/kg/injection, schedule: Q01DX009 (ip), vehicle: saline with Tween-80
[12] = dose: 200.0 mg/kg/injection, schedule: Q01DX009 (ip), vehicle: saline with Tween-80
[13] = dose: 100.0 mg/kg/injection, schedule: Q04DX003 (ip), vehicle: saline with Tween-80
[14] = dose: 60.0 mg/kg/injection, schedule: Q01DX005 (ip), vehicle: saline with Tween-80
[15] = dose: 120.0 mg/kg/injection, schedule: Q01DX005 (ip), vehicle: saline with Tween-80
[16] = dose: 240.0 mg/kg/injection, schedule: Q01DX005 (ip), vehicle: saline with Tween-80
[17] = dose: 50.0 mg/kg/injection, schedule: Q01DX001 (ip), vehicle: saline
[18] = dose: 6.25 mg/kg/injection, schedule: Q01DX009 (ip), vehicle: saline
[19] = dose: 12.5 mg/kg/injection, schedule: Q01DX009 (ip), vehicle: saline
[20] = dose: 25.0 mg/kg/injection, schedule: Q01DX009 (ip), vehicle: saline
[21] = dose: 200.0 mg/kg/injection, schedule: Q04DX003 (ip), vehicle: saline with Tween-80
[22] = dose: 400.0 mg/kg/injection, schedule: Q04DX003 (ip), vehicle: saline with Tween-80

Measured: T/C

CC1(C)NC(=O)N(CN2CCOCC2)C1=O
inactive: [1] 104 % of control | [2] 109 % of control and 111 % of control and 93 % of control | [3] 106 % of control and 119 % of control and 123 % of control | dose: 240.0 mg/kg/injection, schedule: Q01DX005 (ip), vehicle: saline 106 % of control and 116 % of control and 120 % of control

CC(C)C1NC(=O)N(C2CCCCCC2)C1=O (centres undefined)
inactive: [4] 100 % of control | [5] 96 % of control | [6] 100 % of control

OCCCCC12CCC(CCCCO)(CC1)CC2
inactive: dose: 100.0 mg/kg/injection, schedule: Q04DX002 (ip), vehicle: Klucel (hydroxypropylcellulose) (HPC) 91 % of control | dose: 400.0 mg/kg/injection, schedule: Q04DX002 (ip), vehicle: Klucel (hydroxypropylcellulose) (HPC) 86 % of control

Cn1c(N)nc(N)c(NC=O)c1=O
inactive: [4] 101 % of control | [5] 103 % of control | [6] 101 % of control

Clc1ccc(/C=C/c2ccnnc2)cc1
inactive: [7] 106 % of control | [8] 106 % of control | [9] 91 % of control

CC1=NN(c2ccccc2)C(=O)C1C1c2ccccc2S(=O)(=O)c2ccccc21 (centres undefined)
inactive: dose: 60.0 mg/kg/injection, schedule: Q01DX005 (ip), vehicle: Klucel (hydroxypropylcellulose) (HPC) 97 % of control | dose: 120.0 mg/kg/injection, schedule: Q01DX005 (ip), vehicle: Klucel (hydroxypropylcellulose) (HPC) 87 % of control

CC1(C)CCC/C(=C\c2ccccc2)C1(O)c1ccccn1 (centres undefined)
inactive: [10] 97 % of control | [11] 98 % of control | [12] 100 % of control

Cc1cccn2c(N=O)cnc12
inactive: [13] 98 % of control

CC1=NC(=O)CC2=C1C(C)N(Cc1ccccc1)C2=O (centres undefined)
inactive: [7] 98 % of control | [8] 94 % of control | [9] 99 % of control

O=C1CCC(=O)N1CNCCc1cc(Cl)cc(Cl)c1O
inactive: [10] 102 % of control | [11] 103 % of control | [12] 94 % of control

N#Cc1c(N2CCOCC2)c(-c2ccccc2)c(N2CCOCC2)n2c1nc1ccccc12
inactive: [14] 90 % of control | [15] 96 % of control | [16] 87 % of control

FC(F)(F)C[P+](c1ccccc1)(c1ccccc1)c1ccccc1
inactive: dose: 12.5 mg/kg/injection, schedule: Q01DX001 (ip), vehicle: saline 100 % of control and 109 % of control | dose: 25.0 mg/kg/injection, schedule: Q01DX001 (ip), vehicle: saline 108 % of control and 117 % of control | [17] 104 % of control

S=c1nc(Oc2ccc(-c3ccccc3)cc2)[nH]c(=S)[nH]1
inactive: [14] 87 % of control | [15] 92 % of control | [16] 97 % of control

Nc1nnc(Cc2ccccc2)n1N
inactive: dose: 15.0 mg/kg/injection, schedule: Q01DX005 (ip), vehicle: saline 100 % of control | [1] 101 % of control | [14] 98 % of control | [2] 100 % of control and 117 % of control | [15] 100 % of control | [3] 116 % of control | [16] 94 % of control

O=C1NC(=O)C2=C1CCCC2O (centres undefined)
inactive: [18] 102 % of control | [19] 101 % of control | [20] 110 % of control | [7] 102 % of control | [8] 107 % of control | [9] 118 % of control

CCN(CC)Cc1cc(Nc2ccnc3cc(N(C)C)ccc23)ccc1O
inactive: [18] 103 % of control | [19] 115 % of control | [20] 115 % of control

CCOC(=O)C(O)Cc1cnc2ccccc2n1 (centres undefined)
inactive: dose: 50.0 mg/kg/injection, schedule: Q01DX005 (ip), vehicle: saline with Tween-80 108 % of control | dose: 100.0 mg/kg/injection, schedule: Q01DX005 (ip), vehicle: saline with Tween-80 108 % of control | dose: 200.0 mg/kg/injection, schedule: Q01DX005 (ip), vehicle: saline with Tween-80 100 % of control

CCCCCCNC(C)C
inactive: dose: 50.0 mg/kg/injection, schedule: Q01DX005 (ip), vehicle: saline 104 % of control | dose: 100.0 mg/kg/injection, schedule: Q01DX005 (ip), vehicle: saline 101 % of control

N=C(N)c1ccc(N=Nc2c(O)ccc3cc(O)ccc23)cc1
inactive: dose: 3.12 mg/kg/injection, schedule: Q01DX005 (ip), vehicle: Klucel (hydroxypropylcellulose) (HPC) 104 % of control | dose: 6.25 mg/kg/injection, schedule: Q01DX005 (ip), vehicle: Klucel (hydroxypropylcellulose) (HPC) 101 % of control and 102 % of control | dose: 12.5 mg/kg/injection, schedule: Q01DX005 (ip), vehicle: Klucel (hydroxypropylcellulose) (HPC) 116 % of control (2×) and 95 % of control

[O-]/[N+]1=[N+](\[O-])c2ccccc2CCCc2ccccc21
inactive: [14] 102 % of control | [15] 100 % of control | [16] 88 % of control

Cc1cc([N+](=O)[O-])ccc1NC(=O)n1nnc2cc(Cl)ccc21
inactive: dose: 50.0 mg/kg/injection, schedule: Q01DX009 (ip), vehicle: Klucel (hydroxypropylcellulose) (HPC) 98 % of control | dose: 100.0 mg/kg/injection, schedule: Q01DX009 (ip), vehicle: Klucel (hydroxypropylcellulose) (HPC) 98 % of control | dose: 200.0 mg/kg/injection, schedule: Q01DX009 (ip), vehicle: Klucel (hydroxypropylcellulose) (HPC) 107 % of control

CNC(=O)N(C)C/C=C/CN(C)C(=O)NC
inactive: [7] 105 % of control | [8] 102 % of control | [9] 102 % of control

CCOC(=O)/C(C#N)=C1/SC=C(N)N1c1ccccc1
inactive: [4] 98 % of control | [5] 94 % of control | [6] 91 % of control

Cn1nnnc1NN(c1nnnn1C)C1C=CCC=C1
inactive: [13] 99 % of control | [21] 97 % of control | [22] 98 % of control

O=c1[nH]c(=O)c2nc(-c3ccccn3)cnc2[nH]1
inactive: [17] 101 % of control | dose: 100.0 mg/kg/injection, schedule: Q01DX001 (ip), vehicle: saline 90 % of control | dose: 200.0 mg/kg/injection, schedule: Q01DX001 (ip), vehicle: saline 92 % of control

CCC(C)P(=O)(N1CC1C)N1CC1C (centres undefined)
inactive: dose: 1.5 mg/kg/injection, schedule: Q01DX009 (ip), vehicle: saline 104 % of control | dose: 3.0 mg/kg/injection, schedule: Q01DX009 (ip), vehicle: saline 109 % of control | dose: 6.0 mg/kg/injection, schedule: Q01DX009 (ip), vehicle: saline 109 % of control | dose: 12.5 mg/kg/injection, schedule: Q04DX003 (ip), vehicle: saline 95 % of control | dose: 25.0 mg/kg/injection, schedule: Q04DX003 (ip), vehicle: saline 95 % of control | dose: 50.0 mg/kg/injection, schedule: Q04DX003 (ip), vehicle: saline 113 % of control

c1cncc(C(Nc2cccc3cccnc23)Nc2cccc3cccnc23)c1
inactive: [14] 94 % of control | [15] 91 % of control | [16] 90 % of control

CC(=O)Nc1cc(F)c2c(c1F)Cc1cc(F)ccc1-2
inactive: [11] 100 % of control | [13] 100 % of control | [12] 90 % of control | [21] 100 % of control | [22] 104 % of control

Brc1ccc(/C=C/c2ccnnc2)cc1
inactive: [7] 93 % of control | [8] 94 % of control | [9] 100 % of control

NC(Cc1ccccc1)P(=O)(O)O (centres undefined)
inactive: dose: 25.0 mg/kg/injection, schedule: Q01DX009 (ip), vehicle: suspension in saline 97 % of control | dose: 50.0 mg/kg/injection, schedule: Q01DX009 (ip), vehicle: suspension in saline 99 % of control | dose: 100.0 mg/kg/injection, schedule: Q01DX009 (ip), vehicle: suspension in saline 99 % of control | dose: 200.0 mg/kg/injection, schedule: Q01DX009 (ip), vehicle: suspension in saline 97 % of control
